Data published in PubChem BioAssay (NCI).
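Step 1: Grow cells in 96-well plates. Step 2: Expose to compound for 48 hours at 5 concentrations. Step 3: Interpolate endpoints linearly; if unreached, use highest concentration. TGI: total growth inhibition.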

Tests used:
Assay in all cases: NCI tumour cell line growth inhibition, 48 h
COLO 205 colon = system: COLO 205 colon
NCI-H460 lung = system: NCI-H460 lung
BT-549 breast = system: BT-549 breast
SF-295 CNS = system: SF-295 CNS
K-562 leukemia = system: K-562 leukemia
HCC-2998 colon = system: HCC-2998 colon
NCI-H226 lung = system: NCI-H226 lung
UO-31 renal = system: UO-31 renal
SNB-75 CNS = system: SNB-75 CNS
HOP-92 NSCLC = system: HOP-92 NSCLC
SNB-19 CNS = system: SNB-19 CNS
RPMI-8226 leukemia = system: RPMI-8226 leukemia
A498 renal = system: A498 renal
NCI-H23 lung = system: NCI-H23 lung
ACHN renal = system: ACHN renal
T-47D breast = system: T-47D breast
TK-10 renal = system: TK-10 renal
UACC-257 melanoma = system: UACC-257 melanoma
SK-MEL-2 melanoma = system: SK-MEL-2 melanoma
CAKI-1 renal = system: CAKI-1 renal
KM12 colon = system: KM12 colon
PC-3 prostate = system: PC-3 prostate
SW-620 colon = system: SW-620 colon
IGROV1 ovarian = system: IGROV1 ovarian
A549 NSCLC = system: A549 NSCLC
EKVX NSCLC = system: EKVX NSCLC
SF-539 CNS = system: SF-539 CNS
SN12C renal = system: SN12C renal
MALME-3M melanoma = system: MALME-3M melanoma
HCT-116 colon = system: HCT-116 colon
SK-OV-3 ovarian = system: SK-OV-3 ovarian
UACC-62 melanoma = system: UACC-62 melanoma
NCI/ADR-RES ovarian = system: NCI/ADR-RES ovarian
OVCAR-5 ovarian = system: OVCAR-5 ovarian
HCT-15 colon = system: HCT-15 colon
HOP-62 NSCLC = system: HOP-62 NSCLC
OVCAR-8 ovarian = system: OVCAR-8 ovarian
MCF7 breast = system: MCF7 breast
MDA-MB-435 = system: MDA-MB-435
OVCAR-3 ovarian = system: OVCAR-3 ovarian
SK-MEL-5 melanoma = system: SK-MEL-5 melanoma
MDA-N = system: MDA-N
786-0 renal = system: 786-0 renal
HT29 colon = system: HT29 colon
MDA-MB-231 breast = system: MDA-MB-231 breast
SK-MEL-28 melanoma = system: SK-MEL-28 melanoma
SF-268 CNS = system: SF-268 CNS
U251 CNS = system: U251 CNS
OVCAR-4 ovarian = system: OVCAR-4 ovarian
LOX IMVI melanoma = system: LOX IMVI melanoma
NCI-H522 lung = system: NCI-H522 lung
RXF 393 renal = system: RXF 393 renal
HS 578T breast = system: HS 578T breast
M14 melanoma = system: M14 melanoma
CCRF-CEM leukemia = system: CCRF-CEM leukemia
MOLT-4 leukemia = system: MOLT-4 leukemia
DU-145 prostate = system: DU-145 prostate
SR leukemia = system: SR leukemia
HL-60(TB) leukemia = system: HL-60(TB) leukemia

`CCCCc1ccc(Nc2cc(=O)n(C)c(=O)[nH]2)cc1` was tested, and the TGI (COLO 205 colon) was > 100 µM, the TGI (NCI-H460 lung) was > 100 µM and the TGI (BT-549 breast) was > 100 µM. The TGI (SF-295 CNS) was > 100 µM, the TGI (K-562 leukemia) was > 100 µM and the TGI (HCC-2998 colon) was > 100 µM. The TGI (NCI-H226 lung) was > 100 µM, the TGI (UO-31 renal) was > 100 µM and the TGI (SNB-75 CNS) was > 100 µM. The TGI (HOP-92 NSCLC) was > 100 µM, the TGI (SNB-19 CNS) was > 100 µM and the TGI (RPMI-8226 leukemia) was > 100 µM. The TGI (A498 renal) was > 100 µM, the TGI (NCI-H23 lung) was > 100 µM and the TGI (ACHN renal) was > 100 µM. For the same compound, the TGI (T-47D breast) was > 100 µM, the TGI (TK-10 renal) was > 100 µM and the TGI (UACC-257 melanoma) was > 100 µM. The TGI (SK-MEL-2 melanoma) was > 100 µM, the TGI (CAKI-1 renal) was > 100 µM and the TGI (KM12 colon) was > 100 µM. For the same compound, the TGI (PC-3 prostate) was > 100 µM, the TGI (SW-620 colon) was > 100 µM and the TGI (IGROV1 ovarian) was > 100 µM. For the same compound, the TGI (A549 NSCLC) was > 100 µM, the TGI (EKVX NSCLC) was > 100 µM and the TGI (SF-539 CNS) was > 100 µM. For the same compound, the TGI (SN12C renal) was > 100 µM, the TGI (MALME-3M melanoma) was > 100 µM and the TGI (HCT-116 colon) was > 100 µM. For the same compound, the TGI (SK-OV-3 ovarian) was > 100 µM, the TGI (UACC-62 melanoma) was > 100 µM and the TGI (NCI/ADR-RES ovarian) was > 100 µM. The TGI (OVCAR-5 ovarian) was > 100 µM, the TGI (HCT-15 colon) was > 100 µM and the TGI (HOP-62 NSCLC) was > 100 µM. The TGI (OVCAR-8 ovarian) was > 100 µM, the TGI (MCF7 breast) was 72.9 µM and the TGI (MDA-MB-435) was > 100 µM. For the same compound, the TGI (OVCAR-3 ovarian) was > 100 µM, the TGI (SK-MEL-5 melanoma) was > 100 µM and the TGI (MDA-N) was > 100 µM. The TGI (786-0 renal) was > 100 µM, the TGI (HT29 colon) was > 100 µM and the TGI (MDA-MB-231 breast) was > 100 µM. For the same compound, the TGI (SK-MEL-28 melanoma) was > 100 µM, the TGI (SF-268 CNS) was > 100 µM and the TGI (U251 CNS) was > 100 µM. The TGI (OVCAR-4 ovarian) was > 100 µM, the TGI (LOX IMVI melanoma) was > 100 µM and the TGI (NCI-H522 lung) was > 100 µM. The TGI (RXF 393 renal) was > 100 µM, the TGI (HS 578T breast) was > 100 µM and the TGI (M14 melanoma) was > 100 µM.
In the case of `CC(C)(C)C1CCC2c3c([nH]c4ccccc34)C3C(=O)N(c4cccc([N+](=O)[O-])c4)C(=O)C3C2C1` (stereo unspecified), the TGI (COLO 205 colon) is reported as 73.6 µM, the TGI (NCI-H460 lung) is reported as > 100 µM and the TGI (BT-549 breast) is reported as 40 µM. The TGI (SF-295 CNS) was > 100 µM, the TGI (K-562 leukemia) was > 100 µM and the TGI (HCC-2998 colon) was 63.4 µM. For the same compound, the TGI (NCI-H226 lung) was 53.1 µM, the TGI (UO-31 renal) was > 100 µM and the TGI (SNB-75 CNS) was > 100 µM. The TGI (HOP-92 NSCLC) was > 100 µM, the TGI (SNB-19 CNS) was > 100 µM and the TGI (A498 renal) was > 100 µM. The TGI (NCI-H23 lung) was > 100 µM, the TGI (ACHN renal) was > 100 µM and the TGI (T-47D breast) was > 100 µM. The TGI (TK-10 renal) was > 100 µM, the TGI (UACC-257 melanoma) was 61.6 µM and the TGI (SK-MEL-2 melanoma) was 64.1 µM. The TGI (CAKI-1 renal) was 54.2 µM, the TGI (KM12 colon) was 25.3 µM and the TGI (PC-3 prostate) was > 100 µM. For the same compound, the TGI (CCRF-CEM leukemia) was > 100 µM, the TGI (SW-620 colon) was > 100 µM and the TGI (IGROV1 ovarian) was > 100 µM. The TGI (A549 NSCLC) was > 100 µM, the TGI (EKVX NSCLC) was 66.8 µM and the TGI (SF-539 CNS) was > 100 µM. For the same compound, the TGI (SN12C renal) was 25.5 µM, the TGI (MALME-3M melanoma) was 59.7 µM and the TGI (MOLT-4 leukemia) was > 100 µM. For the same compound, the TGI (HCT-116 colon) was 40.4 µM, the TGI (SK-OV-3 ovarian) was > 100 µM and the TGI (UACC-62 melanoma) was > 100 µM. For the same compound, the TGI (NCI/ADR-RES ovarian) was 74.2 µM, the TGI (OVCAR-5 ovarian) was > 100 µM and the TGI (DU-145 prostate) was > 100 µM. For the same compound, the TGI (HCT-15 colon) was > 100 µM, the TGI (HOP-62 NSCLC) was 99.4 µM and the TGI (OVCAR-8 ovarian) was > 100 µM. The TGI (MCF7 breast) was > 100 µM, the TGI (MDA-MB-435) was 81.5 µM and the TGI (SR leukemia) was > 100 µM. The TGI (OVCAR-3 ovarian) was > 100 µM, the TGI (MDA-N) was 45.7 µM and the TGI (786-0 renal) was 43.7 µM. The TGI (HT29 colon) was > 100 µM, the TGI (MDA-MB-231 breast) was 92.3 µM and the TGI (SK-MEL-28 melanoma) was > 100 µM. For the same compound, the TGI (SF-268 CNS) was 77.6 µM, the TGI (U251 CNS) was > 100 µM and the TGI (OVCAR-4 ovarian) was > 100 µM. The TGI (LOX IMVI melanoma) was 49.8 µM, the TGI (NCI-H522 lung) was 48.8 µM and the TGI (RXF 393 renal) was > 100 µM. The TGI (M14 melanoma) was > 100 µM.
In the case of `CN1CCN([C@H]2C[C@H]3[C@@H]4CC=C5C[C@@H](N6CCCC6)CC[C@]5(C)[C@H]4CC[C@]3(C)[C@H]2O)CC1`, the TGI (COLO 205 colon) is reported as > 100 µM, the TGI (NCI-H460 lung) is reported as > 100 µM and the TGI (BT-549 breast) is reported as > 100 µM. For the same compound, the TGI (SF-295 CNS) was > 100 µM, the TGI (K-562 leukemia) was 34.2 µM and the TGI (HCC-2998 colon) was 97.8 µM. For the same compound, the TGI (NCI-H226 lung) was > 100 µM, the TGI (UO-31 renal) was > 100 µM and the TGI (SNB-75 CNS) was > 100 µM. For the same compound, the TGI (HOP-92 NSCLC) was > 100 µM, the TGI (SNB-19 CNS) was > 100 µM and the TGI (RPMI-8226 leukemia) was 53.6 µM. The TGI (A498 renal) was > 100 µM, the TGI (NCI-H23 lung) was > 100 µM and the TGI (ACHN renal) was > 100 µM. For the same compound, the TGI (T-47D breast) was > 100 µM, the TGI (TK-10 renal) was > 100 µM and the TGI (UACC-257 melanoma) was 48.3 µM. The TGI (SK-MEL-2 melanoma) was > 100 µM, the TGI (KM12 colon) was > 100 µM and the TGI (PC-3 prostate) was > 100 µM. For the same compound, the TGI (CCRF-CEM leukemia) was > 100 µM, the TGI (SW-620 colon) was > 100 µM and the TGI (IGROV1 ovarian) was > 100 µM. The TGI (A549 NSCLC) was > 100 µM, the TGI (EKVX NSCLC) was > 100 µM and the TGI (SF-539 CNS) was 30.6 µM. For the same compound, the TGI (SN12C renal) was > 100 µM, the TGI (MALME-3M melanoma) was 35.8 µM and the TGI (MOLT-4 leukemia) was > 100 µM. The TGI (HL-60(TB) leukemia) was 47.9 µM, the TGI (HCT-116 colon) was > 100 µM and the TGI (SK-OV-3 ovarian) was > 100 µM. For the same compound, the TGI (UACC-62 melanoma) was > 100 µM, the TGI (NCI/ADR-RES ovarian) was > 100 µM and the TGI (OVCAR-5 ovarian) was > 100 µM. The TGI (HCT-15 colon) was > 100 µM, the TGI (HOP-62 NSCLC) was > 100 µM and the TGI (OVCAR-8 ovarian) was > 100 µM. For the same compound, the TGI (MCF7 breast) was > 100 µM, the TGI (MDA-MB-435) was > 100 µM and the TGI (SR leukemia) was 16.4 µM. The TGI (OVCAR-3 ovarian) was > 100 µM, the TGI (SK-MEL-5 melanoma) was 39.9 µM and the TGI (MDA-N) was 55 µM. For the same compound, the TGI (786-0 renal) was > 100 µM, the TGI (HT29 colon) was > 100 µM and the TGI (MDA-MB-231 breast) was > 100 µM. For the same compound, the TGI (SK-MEL-28 melanoma) was 55.8 µM, the TGI (SF-268 CNS) was > 100 µM and the TGI (U251 CNS) was > 100 µM. For the same compound, the TGI (OVCAR-4 ovarian) was > 100 µM, the TGI (LOX IMVI melanoma) was 39.1 µM and the TGI (NCI-H522 lung) was > 100 µM. The TGI (RXF 393 renal) was 42.8 µM, the TGI (HS 578T breast) was > 100 µM and the TGI (M14 melanoma) was 29.8 µM.
